Among the data in ChEMBL document CHEMBL1156415, “Selective inhibition of porcine endogenous retrovirus replication in human cells by acyclic nucleoside phosphonates” (Antimicrob Agents Chemother, 2007) are EC50, CC50 and IC50 values, retold here.

Where only a bound is given, the exact number is not on record here.

In series [1] the test system is Porcine endogenous retrovirus. Kind of series: Antiviral activity against PERV infected in human 293T cells assessed as inhibition of proximal DNA synthesis after 24 hrs by RT-PCR. It counts as functional, organism-based. To be noted: Porcine type-C oncovirus, HEK-293T.
Series [2] can be described thus: Cytotoxicity against human 293T cells assessed as inhibition of cell proliferation by tetrazolium dye method. It counts as cell-based, HEK-293T.
A short description of series [3]: Inhibition of PERV reverse transcriptase from pig PK15 cells. Type of series: cell-based, Porcine endogenous retrovirus.
Series [4] is described as follows: Inhibition of PERV reverse transcriptase from Kagoshima pig KK5 cells. Further details: species or system Porcine endogenous retrovirus.
Series [5] is described as follows: Inhibition of PERV reverse transcriptase from Kagoshima pig DRK4 cells. Further details: species or system Porcine endogenous retrovirus.
Series [6] has as its target Human immunodeficiency virus type 1 reverse transcriptase (Human immunodeficiency virus 1, UniProt Q72547). Kind of series: Inhibition of HIV1 recombinant reverse transcriptase.

What is called EC50 is the concentration giving half of the maximal effect. One may read the CC50 as the concentration giving 50% cytotoxicity. As for `Cc1cn([C@H]2C[C@H](O)[C@](CO)(N=[N+]=[N-])O2)c(=O)[nH]c1=O`, the half-maximal effective concentration (EC50) in series [1] was over 100 µM. Moreover, the CC50 in series [2] was over 100 µM.

In the case of `Nc1cc(OCCOCP(=O)(O)O)nc(N)n1`, the EC50 in series [1] stood at 0.18 µM. In addition, the cytotoxic concentration (CC50) in series [2] was over 100 µM.

Consider `C[C@H](Cn1cnc2c(N)nc(N)nc21)OCP(=O)(O)O`, for which, in series [1], the EC50 turned out to be 0.28 µM. For the same molecule, the cytotoxic concentration (CC50) in series [2] was over 100 µM.

Turning to `Nc1ncnc2c1ncn2CCOCP(=O)(O)O` [ADEFOVIR], the half-maximal effective concentration (EC50) in series [1] came out at 3.4 µM. For the same molecule, in series [2], the 50% cytotoxic concentration (CC50) is over 100 µM.

Take `C#C[C@@]1(CO)C=C[C@H](n2cc(C)c(=O)[nH]c2=O)O1` [CENSAVUDINE]: the EC50 in series [1] is over 100 µM. In series [2], the CC50 was over 100 µM.

Take `Nc1ccn([C@@H]2CS[C@H](CO)O2)c(=O)n1` [LAMIVUDINE]: the half-maximal effective concentration (EC50) in series [1] is over 100 µM. Moreover, the CC50 in series [2] was over 100 µM.

On to `Cc1ccnc2c1NC(=O)c1cccnc1N2C1CC1` [NEVIRAPINE], for which the concentration for a half-maximal effect (EC50) in series [1] is over 100 µM. The CC50 in series [2] was over 100 µM.

For orientation: IC50 means the concentration that inhibits the measured activity by half. For `Cc1cn([C@H]2C=C[C@@H](COP(=O)(O)OP(=O)(O)OP(=O)(O)O)O2)c(=O)[nH]c1=O` [STAVUDINE TRIPHOSPHATE], the IC50 in series [3] turned out to be 450 nM; in series [4], 150 nM; in series [5] it was 170 nM; in series [6], 36 nM.

Take `Cc1cn([C@H]2C=C[C@@H](CO)O2)c(=O)[nH]c1=O` [STAVUDINE]: the EC50 in series [1] was determined as 7.8 µM. For the same molecule, in series [2], the CC50 is over 100 µM.

Regarding `C[C@H](Cn1cnc2c(N)ncnc21)OCP(=O)(O)O` [TENOFOVIR ANHYDROUS], the EC50 in series [1] came out at 2.8 µM. In series [2], the CC50 was over 100 µM.

In the case of `Cc1cn([C@H]2C[C@H](N=[N+]=[N-])[C@@H](COP(=O)(O)OP(=O)(O)OP(=O)(O)O)O2)c(=O)[nH]c1=O` [ZIDOVUDINE TRIPHOSPHATE], the half-maximal inhibitory concentration (IC50) in series [3] was determined as 59 nM; in series [4], 19 nM; in series [5], 20 nM; in series [6], 54 nM.

For the molecule `Cc1cn([C@H]2C[C@H](N=[N+]=[N-])[C@@H](CO)O2)c(=O)[nH]c1=O` [ZIDOVUDINE], the concentration giving a half-maximal response (EC50) in series [1] amounted to 0.023 µM. The CC50 in series [2] is over 10 µM.
